Experiments:
[1] = molecular target: Xanthine oxidase (from bovine milk, Sigma) (Bos taurus (Bovine), UniProt P80457); assay: Xanthine oxidase inhibitory activity; type: biochemical; conditions: xanthine substrate, 10 minutes at room temperature, absorbance at 290 nm
Experimental: (1) Preparation of Test Compounds
Test compounds were dissolved in DMSO (Wako) at 40 mM concentration and then diluted to intended concentrations with phosphate-buffered saline (PBS).
(2) Method for Measurement
Xanthine oxidase (from bovine milk, Sigma) was prepared with phosphate-buffered saline (PBS) at 0.02 units/mL, and then the solution was added to 96 well plates at 50 μL/well. In addition, test compounds diluted with PBS were added at 50 μL/well. Xanthine (Wako) at 200 μM prepared with PBS was added at 100 μL/well, and the reaction was conducted for 10 minutes at room temperature. Absorbance at 290 nm was measured using a microplate reader SpectraMax Plus 384 (Molecular device). The absorbance under a condition without xanthine is 0%, and control without test compounds is 100%. Fifty % inhibitory concentration of a test compound (IC50) was calculated (Table 60). Ex. No in the table indicates Example number.

[2] = tested on: BBMV from human kidney cortex (uric acid uptake); assay: Inhibitory activity of uric acid transport with brush-border membrane vesicles (BBMV); type: biochemical; conditions: 10 μM test compound; uptake of 14C-labeled uric acid into human kidney cortex BBMV, 20 seconds
Experimental: Inhibitory activity of uric acid transport of test compounds was performed on the basis of methods described in a reference (Am. J. Physiol. 266 (Renal Fluid Electrolyte Physiol. 35): F797-F805, 1994) with a partial modification.
(1) Preparation of BBMV from Human Kidney Cortex
BBMV from human kidney cortex were purchased from KAC. Renal cortex was dissected from human kidney and cut into small pieces. Then, the cortex was homogenized in 5 volumes of ice-cold isotonic buffer (300 mM mannitol, 5 mM ethylene glycol-bis-(β-aminoethylether)-N,N,N′,N′-tetraacetic acid (EGTA), 12 mM tris(hydroxymethyl)aminomethane (Tris).HCl, pH 7.4). After adding 1 M magnesium chloride to a final concentration of 12 mM, and then the suspension was mixed and allowed to stand on ice for 15 minutes. […] After centrifugation at 30,000×g for 30 minutes at 4° C., the pellet was resuspended in buffer 2, and then the protein concentration was determined. […]
BBMV were thawed on ice. […] The uptake of uric acid into BBMV was measured by the rapid-filtration technique. […] Furthermore, filters were washed twice with 3 mL of stop solution and dissolved in 10 mL of Filter-Count (PerkinElmer), and the radioactivity was counted in a liquid scintillation counter (PerkinElmer). The radioactivity associated with the filters in the absence of BBMV was used as corrections. […]

Chain of Xanthine oxidase (from bovine milk, Sigma) (P80457 whole entry): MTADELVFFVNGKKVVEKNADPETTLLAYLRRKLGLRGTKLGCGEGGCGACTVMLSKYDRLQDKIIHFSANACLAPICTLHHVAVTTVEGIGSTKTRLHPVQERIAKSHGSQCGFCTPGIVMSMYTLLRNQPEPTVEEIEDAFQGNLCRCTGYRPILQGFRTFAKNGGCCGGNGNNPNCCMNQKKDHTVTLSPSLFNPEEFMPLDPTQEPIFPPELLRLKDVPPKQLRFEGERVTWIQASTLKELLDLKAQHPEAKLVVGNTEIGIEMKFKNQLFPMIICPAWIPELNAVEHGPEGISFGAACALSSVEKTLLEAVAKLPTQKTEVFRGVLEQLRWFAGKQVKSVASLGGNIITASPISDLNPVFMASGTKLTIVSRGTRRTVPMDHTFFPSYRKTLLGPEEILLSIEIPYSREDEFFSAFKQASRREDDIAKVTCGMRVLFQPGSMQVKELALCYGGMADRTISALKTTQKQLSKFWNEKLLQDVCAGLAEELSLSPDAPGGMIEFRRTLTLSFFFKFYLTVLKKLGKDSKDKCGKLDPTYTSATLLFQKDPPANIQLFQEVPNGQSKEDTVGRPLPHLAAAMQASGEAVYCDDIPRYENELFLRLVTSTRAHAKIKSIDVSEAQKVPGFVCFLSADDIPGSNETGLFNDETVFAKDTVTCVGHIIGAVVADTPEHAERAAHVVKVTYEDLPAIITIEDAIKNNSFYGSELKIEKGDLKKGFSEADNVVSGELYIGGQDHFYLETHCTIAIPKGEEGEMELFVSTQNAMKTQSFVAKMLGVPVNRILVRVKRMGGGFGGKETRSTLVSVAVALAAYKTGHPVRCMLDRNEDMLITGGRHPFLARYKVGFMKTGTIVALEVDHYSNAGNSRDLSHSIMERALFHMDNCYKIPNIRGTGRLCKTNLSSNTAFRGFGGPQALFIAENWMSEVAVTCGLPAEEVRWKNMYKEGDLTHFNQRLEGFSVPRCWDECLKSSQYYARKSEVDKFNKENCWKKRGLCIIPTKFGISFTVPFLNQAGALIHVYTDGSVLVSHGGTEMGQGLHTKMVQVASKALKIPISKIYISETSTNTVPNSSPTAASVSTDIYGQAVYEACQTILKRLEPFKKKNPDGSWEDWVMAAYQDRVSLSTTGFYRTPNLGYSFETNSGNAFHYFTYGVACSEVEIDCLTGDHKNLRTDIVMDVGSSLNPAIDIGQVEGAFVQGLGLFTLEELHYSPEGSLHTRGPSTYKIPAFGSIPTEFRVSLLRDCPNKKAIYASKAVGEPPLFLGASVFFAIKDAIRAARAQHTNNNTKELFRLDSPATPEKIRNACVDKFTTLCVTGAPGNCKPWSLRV

CC(C)c1ccc2c(C#N)cn(-c3ccc(C(=O)O)c(O)c3)c2c1 [Example 237]
IC50 [1]: 12.6 nM | inhibition % [2]: 64%

From patent US8993616B2, “(aza)indole derivative and use thereof for medical purposes” (Kissei Pharmaceutical Co., Ltd., priority 2007, dated 2015)
